Active and inactive are the calls of the source.
Experiments:
[1] = inhibitors of HIV Env-driven cell fusion, dose response, cherry-pick (AID 652057); format: functional, cell-based
[2] = ZM109 Env clade C HIV-1 fusion inhibitors, dose response, HeLa effector, CEM target cells, luciferase, cherry-pick (AID 652058); format: functional, cell-based
[3] = off-target signal loss in HeLa-CEM21 co-culture – HeLa F-luc CTL cells, cherry-picked, counter-screen for HIV-1 Env fusion inhibitor project, dose response (AID 652040); format: functional, cell-based;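 further: potency for signal decrease marking cytotoxic or nonspecific inhibition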
[4] = inhibitors of clade B AD8 Env fusion, dose response, cell-based, cherry-pick (AID 652062); format: functional;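 further: luciferase signal from cell-cell fusion driven by HIV-1 clade B AD8 Env; potency is for inhibitors of fusion seen as a drop in luminescence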
Aminopeptidase N = target: T1, Aminopeptidase N (Plasmodium falciparum FcB1/Columbia, UniProt O96935); experiment: P. falciparum M1AAP inhibitors, biochemical, fluorogenic H-Leu-NHMec substrate, 1536-well (AID 1445); set-up: species or system Plasmodium falciparum 3D7, 3D7
T1 sequence (O96935 whole entry): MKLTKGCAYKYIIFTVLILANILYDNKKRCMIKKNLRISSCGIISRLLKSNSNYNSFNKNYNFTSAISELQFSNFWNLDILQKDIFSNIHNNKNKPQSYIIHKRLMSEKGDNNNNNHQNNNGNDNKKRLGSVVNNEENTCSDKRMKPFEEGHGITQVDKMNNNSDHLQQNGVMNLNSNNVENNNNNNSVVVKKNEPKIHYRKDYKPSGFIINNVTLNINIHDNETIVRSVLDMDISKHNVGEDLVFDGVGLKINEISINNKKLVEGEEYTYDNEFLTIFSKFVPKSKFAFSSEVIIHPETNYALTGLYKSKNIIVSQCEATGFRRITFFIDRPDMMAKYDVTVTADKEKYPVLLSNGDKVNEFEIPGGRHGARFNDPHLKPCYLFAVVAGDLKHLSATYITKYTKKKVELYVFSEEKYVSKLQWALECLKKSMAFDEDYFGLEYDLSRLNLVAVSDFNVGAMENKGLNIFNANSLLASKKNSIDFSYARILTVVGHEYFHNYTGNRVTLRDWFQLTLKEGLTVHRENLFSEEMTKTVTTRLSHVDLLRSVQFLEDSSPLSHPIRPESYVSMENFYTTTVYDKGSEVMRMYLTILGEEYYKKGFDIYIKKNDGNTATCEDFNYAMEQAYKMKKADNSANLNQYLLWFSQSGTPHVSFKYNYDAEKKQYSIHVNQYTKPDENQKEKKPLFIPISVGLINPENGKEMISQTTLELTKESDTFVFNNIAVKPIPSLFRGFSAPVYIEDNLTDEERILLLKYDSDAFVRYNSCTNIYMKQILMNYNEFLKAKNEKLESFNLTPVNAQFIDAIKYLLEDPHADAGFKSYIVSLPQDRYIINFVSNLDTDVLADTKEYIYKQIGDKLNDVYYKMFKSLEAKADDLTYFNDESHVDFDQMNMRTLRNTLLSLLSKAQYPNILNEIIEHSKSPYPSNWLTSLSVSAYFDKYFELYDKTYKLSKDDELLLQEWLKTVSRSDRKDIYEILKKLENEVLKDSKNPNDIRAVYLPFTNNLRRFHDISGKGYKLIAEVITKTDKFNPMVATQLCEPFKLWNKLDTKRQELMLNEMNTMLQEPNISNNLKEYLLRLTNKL

[5] = target: Induced myeloid leukemia cell differentiation protein Mcl-1 (Homo sapiens, UniProt Q07820); format: functional
Leucine aminopeptidase = target: T2, Leucine aminopeptidase (Plasmodium falciparum 3D7, UniProt Q8IL11); experiment: P. falciparum M17LAP inhibitors, primary screen, biochemical, fluorogenic H-Leu-NHMec substrate, 1536-well (AID 1619); format: functional
T2 sequence (Q8IL11 whole entry): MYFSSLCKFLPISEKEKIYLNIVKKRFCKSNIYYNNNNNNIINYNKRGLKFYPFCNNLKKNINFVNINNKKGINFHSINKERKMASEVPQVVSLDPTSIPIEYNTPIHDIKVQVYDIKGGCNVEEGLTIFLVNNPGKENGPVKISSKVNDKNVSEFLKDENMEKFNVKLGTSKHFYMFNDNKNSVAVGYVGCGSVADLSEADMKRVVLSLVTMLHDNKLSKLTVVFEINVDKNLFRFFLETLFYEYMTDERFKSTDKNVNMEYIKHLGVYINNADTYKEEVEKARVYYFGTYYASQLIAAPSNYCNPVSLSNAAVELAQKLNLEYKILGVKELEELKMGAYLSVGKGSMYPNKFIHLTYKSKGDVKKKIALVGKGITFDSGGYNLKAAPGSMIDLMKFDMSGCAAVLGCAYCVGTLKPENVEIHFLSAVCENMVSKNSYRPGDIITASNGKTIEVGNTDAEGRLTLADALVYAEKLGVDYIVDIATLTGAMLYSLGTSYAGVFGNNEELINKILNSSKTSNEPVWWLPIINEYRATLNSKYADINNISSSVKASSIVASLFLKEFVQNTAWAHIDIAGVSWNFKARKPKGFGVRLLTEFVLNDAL

[6] = growth suppression of PTEN-null colon cells, dose response, cell-based, HCT116 PTEN knockout (AID 1047); format: functional;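 further: HCT116 colon tumor cells with PTEN knocked out; cells exposed to compound for 60 hours before readout; potency for loss of cell viability measured by luminescence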
[7] = growth suppression of beta-catenin-knockout colon cells, dose response, cell-based, HCT116, human colon tumor (AID 1045); format: functional;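 further: HCT116 colon tumor cells with beta catenin knocked out; cells exposed to compound for 60 hours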
[8] = Luminescence Cell-Based Dose Retest to Confirm Inhibitors of Cancer Stem Cells. [Related pubchem assays (depositor defined):AID2717, AID2721]; format: functional; details: Homo sapiens
Nonstructural protein 1 = Nonstructural protein 1 (Influenza A virus, UniProt Q194T2); format: functional, Influenza A virus (A/California/07/2009(H1N1))
[9] = HEp-2 cell cytotoxicity, dose response, cytotoxicity control for RSV inhibitor project, HTS (AID 2410); format: functional; details: human respiratory syncytial virus
Large T antigen = Large T antigen (Simian virus 40, UniProt P03070); format: functional, Betapolyomavirus macacae;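 further: Confirmatory-stage PubChem screen for compounds that inhibit SV40 T antigen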
INS1 = experiment: beta cell apoptosis inhibitors, cytokine rescue, dose response, luminescence, retest (AID 449756); format: functional, cell-based; details: Rattus norvegicus;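 further: cell death triggered by IL-1 beta plus TNF-alpha plus IFN-gamma mixture; protective hits raise ATP signal compared with cytokine alone wells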
[10] = target: T3, Rac GTPase-activating protein 1 (Homo sapiens, UniProt Q9H0H5); experiment: MgcRacGAP GTPase-activating activity inhibitors, confirmation, biochemical, ADP Hunter fluorescence, primary and confirmatory (AID 624330); format: functional
T3 sequence (Q9H0H5 whole entry): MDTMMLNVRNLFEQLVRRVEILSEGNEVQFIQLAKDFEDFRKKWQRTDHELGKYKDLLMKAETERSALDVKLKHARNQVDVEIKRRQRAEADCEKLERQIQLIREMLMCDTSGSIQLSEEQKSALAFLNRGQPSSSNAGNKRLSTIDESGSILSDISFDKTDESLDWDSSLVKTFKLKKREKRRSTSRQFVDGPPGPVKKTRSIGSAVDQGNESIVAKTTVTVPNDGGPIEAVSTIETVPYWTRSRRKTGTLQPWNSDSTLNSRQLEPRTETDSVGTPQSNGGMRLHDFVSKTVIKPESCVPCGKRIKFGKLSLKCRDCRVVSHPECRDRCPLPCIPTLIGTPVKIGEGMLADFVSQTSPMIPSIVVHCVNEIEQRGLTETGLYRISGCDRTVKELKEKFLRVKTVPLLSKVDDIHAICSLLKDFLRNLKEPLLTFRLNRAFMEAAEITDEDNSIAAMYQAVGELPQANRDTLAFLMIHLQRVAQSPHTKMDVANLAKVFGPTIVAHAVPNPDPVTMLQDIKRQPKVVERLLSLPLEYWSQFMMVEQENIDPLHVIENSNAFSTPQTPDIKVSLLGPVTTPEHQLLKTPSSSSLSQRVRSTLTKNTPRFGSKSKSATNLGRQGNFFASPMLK

[11] = Shn3 3'UTR reporter inhibitors, dose response, cell-based, Clone20 osteoblasts, firefly luciferase, cherry-picked (AID 624132); format: functional;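 further: firefly luciferase luminescence from reporter carrying the Shn3 3'UTR in osteoblasts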
Cytochrome P450 1A2 = target: T4, Cytochrome P450 1A2 (Homo sapiens, UniProt P05177);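 further: PubChem cytochrome P450 panel assay, CYP1A2 panel member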
T4 sequence (P05177 whole entry): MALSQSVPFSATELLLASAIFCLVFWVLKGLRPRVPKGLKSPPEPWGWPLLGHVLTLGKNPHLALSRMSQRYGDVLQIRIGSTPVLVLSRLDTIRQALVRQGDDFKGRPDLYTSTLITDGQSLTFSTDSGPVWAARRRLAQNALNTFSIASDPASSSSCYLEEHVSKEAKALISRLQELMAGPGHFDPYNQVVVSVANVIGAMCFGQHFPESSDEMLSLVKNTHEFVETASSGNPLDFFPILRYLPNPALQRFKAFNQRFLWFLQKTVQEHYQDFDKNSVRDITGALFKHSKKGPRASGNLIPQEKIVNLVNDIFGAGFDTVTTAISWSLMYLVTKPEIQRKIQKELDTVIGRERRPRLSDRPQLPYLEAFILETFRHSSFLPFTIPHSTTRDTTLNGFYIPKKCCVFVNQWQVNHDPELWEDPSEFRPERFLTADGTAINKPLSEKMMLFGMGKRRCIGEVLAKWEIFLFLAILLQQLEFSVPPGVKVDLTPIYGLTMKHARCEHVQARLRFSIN

Sequence of Induced myeloid leukemia cell differentiation protein Mcl-1 (Q07820 whole entry): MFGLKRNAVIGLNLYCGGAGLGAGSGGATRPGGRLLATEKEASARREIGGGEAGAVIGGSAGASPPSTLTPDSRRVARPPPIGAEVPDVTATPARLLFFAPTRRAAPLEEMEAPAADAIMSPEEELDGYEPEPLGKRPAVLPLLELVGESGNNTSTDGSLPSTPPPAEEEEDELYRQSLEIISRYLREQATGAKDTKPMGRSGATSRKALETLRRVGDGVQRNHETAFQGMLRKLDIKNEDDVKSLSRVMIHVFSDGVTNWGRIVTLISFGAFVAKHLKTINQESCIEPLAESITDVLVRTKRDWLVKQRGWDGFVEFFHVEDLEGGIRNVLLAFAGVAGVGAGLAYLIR
Sequence of Large T antigen (P03070 whole entry): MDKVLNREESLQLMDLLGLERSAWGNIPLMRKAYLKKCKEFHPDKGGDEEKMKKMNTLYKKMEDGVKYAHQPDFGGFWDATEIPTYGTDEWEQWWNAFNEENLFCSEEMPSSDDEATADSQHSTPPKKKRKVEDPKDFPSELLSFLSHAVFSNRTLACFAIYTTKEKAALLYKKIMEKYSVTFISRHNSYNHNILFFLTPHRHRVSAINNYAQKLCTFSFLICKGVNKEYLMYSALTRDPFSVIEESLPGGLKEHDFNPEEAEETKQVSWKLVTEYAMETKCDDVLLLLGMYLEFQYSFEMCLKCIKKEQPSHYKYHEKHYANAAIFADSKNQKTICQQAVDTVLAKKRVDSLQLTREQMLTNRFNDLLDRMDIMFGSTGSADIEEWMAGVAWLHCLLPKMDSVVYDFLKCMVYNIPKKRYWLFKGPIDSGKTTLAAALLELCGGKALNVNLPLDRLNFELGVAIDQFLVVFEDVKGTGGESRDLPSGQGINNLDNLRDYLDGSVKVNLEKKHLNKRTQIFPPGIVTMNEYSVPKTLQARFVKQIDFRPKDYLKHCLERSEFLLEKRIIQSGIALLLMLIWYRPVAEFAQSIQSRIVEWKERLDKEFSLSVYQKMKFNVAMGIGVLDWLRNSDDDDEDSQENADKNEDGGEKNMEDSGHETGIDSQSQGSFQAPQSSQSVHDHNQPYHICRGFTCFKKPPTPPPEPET
Sequence of Nonstructural protein 1 (Q194T2 whole entry): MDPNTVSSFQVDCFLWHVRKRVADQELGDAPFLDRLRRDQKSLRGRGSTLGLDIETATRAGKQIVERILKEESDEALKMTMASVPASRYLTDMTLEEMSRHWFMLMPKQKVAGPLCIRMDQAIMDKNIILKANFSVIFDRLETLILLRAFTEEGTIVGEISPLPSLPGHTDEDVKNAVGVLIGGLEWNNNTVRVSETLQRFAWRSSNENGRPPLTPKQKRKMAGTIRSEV

Structure (SMILES): CC12CC3CC(C)(C1)CC(C(=O)NCc1ccncc1)(C3)C2
- AC50 [1]: 7.75 µM (active)
- AC50 [2]: 4.58 µM (active)
- AC50 [3]: 13.5 µM (active)
- AC50 [4]: 22.4 µM (active)

Structure (SMILES): O=c1[nH]c2ccc(Cl)cc2c(-c2ccccc2)c1CN1CCOCC1
- IC50 (Aminopeptidase N): 81.5 µM (active)

Structure (SMILES): CC(C)S(=O)(=O)C1=NSC2=NC(=O)/C(=C\c3c[nH]c4ccccc34)C(=N)N21
- IC50 (Aminopeptidase N): 37.3 µM (active)

Structure (SMILES): FC(F)(F)C1=CC(c2ccccc2)=NCCN1
- IC50 [5]: 9.33 µM (not active)

Structure (SMILES): CC1CCC2(CC1)NC(=O)N(CC(=O)Nc1ccc3c(c1)OCCO3)C2=O (stereo not given)
- IC50 (Leucine aminopeptidase): 13.8 µM (active)

Structure (SMILES): COc1ccc(C2NCCc3c2[nH]c2ccccc32)cc1CSc1nc2ccccc2s1 (stereo not given)
- EC50 [6]: 12.1 µM (active)
- EC50 [7]: 10.1 µM (active)
- AC50 [8]: 3.13 µM (active)

Structure (SMILES): Cc1cc(C=C2C(=O)c3ccccc3C2=O)c(C)n1-c1cccc(C(=O)O)c1
- IC50 (Leucine aminopeptidase): 18.6 µM (active)

Structure (SMILES): CC(NC(=O)c1ccco1)C(=O)Nc1nc(-c2ccccn2)cs1 (stereo not given)
- IC50 (Nonstructural protein 1): 9.55 µM (active)

Structure (SMILES): C=CCOc1ccccc1CNc1ccc2[nH]c(O)nc2c1
- CC50 [9]: 21.8 µM (active)
- IC50 (Large T antigen): 19 µM (active)

Structure (SMILES): Cc1ccccc1NC(=S)N/N=C/c1ccc(O)cc1O
- IC50 (Nonstructural protein 1): 11.2 µM (active)
- AC50 (INS1): 2.54 µM (active)

Structure (SMILES): CN(C)c1ccc(NC(=O)CCN2CCN(c3ccccn3)CC2)cc1
- IC50 (Large T antigen): 6.73 µM (active)

Structure (SMILES): NC(CC(=O)O)c1ccc(Br)cc1 (stereo not given)
- IC50 (Aminopeptidase N): 69.2 µM (active)

Structure (SMILES): CCOc1ccc(C2C3=C(O)c4ccccc4C3=Nc3nc(N)nc(O)c32)cc1 (stereo not given)
- IC50 [5]: > 54 µM (active)

Structure (SMILES): CCOc1cc(/C=N/NC(=O)CCc2nnc(O)nc2O)ccc1O
- IC50 (Large T antigen): 32.7 µM (active)
- IC50 [10]: 59.5 µM (active)

Structure (SMILES): O=C(Nc1nc2ccccc2[nH]1)c1ccc(Cl)c([N+](=O)[O-])c1
- IC50 [5]: 6.46 µM (active)

Structure (SMILES): Oc1ccc(-c2nc3ncccn3c2Nc2ccc3c(c2)OCO3)cc1
- IC50 (Large T antigen): 15.6 µM (active)

Structure (SMILES): O=C(CSc1ncccc1C(=O)O)NCc1ccc(F)cc1
- IC50 (Leucine aminopeptidase): 42.7 µM (active)

Structure (SMILES): CCCCN1CC(COCc2ccccc2)Oc2cccc(Oc3ccc(C)cc3)c2S1(=O)=O (stereo not given)
- AC50 [11]: 10.7 µM (active)

Structure (SMILES): Cc1nnc(SCC(=O)Nc2ccc(N(C)C)cc2)n(N)c1=O
- IC50 (Large T antigen): 11.6 µM (active)

Structure (SMILES): COc1ccc(C(C(=O)NC2CCCC2)N(C(=O)c2ccoc2C)c2ccc(C)cc2)cc1 (stereo not given)
- AC50 [1]: 5.46 µM (active)
- AC50 [2]: 3.47 µM (active)
- AC50 [3]: 8.48 µM (active)
- AC50 [4]: 11.7 µM (active)

Structure (SMILES): COc1nccnc1NS(=O)(=O)c1ccc(/N=C/c2c(C)nn(-c3ccc(C)c(C)c3)c2O)cc1
- IC50 (Leucine aminopeptidase): 19.3 µM (active)

Structure (SMILES): CCc1cc(=O)oc2c(C)c(O)c(CN3CCCCC3)cc12
- IC50 (Aminopeptidase N): 39.9 µM (active)

Structure (SMILES): CCC(=O)c1ccc(OCC(O)CN(CCc2ccccc2)Cc2ccccc2)cc1 (stereo not given)
- EC50 [6]: 49.2 µM (active)
- EC50 [7]: 83.6 µM (active)
- AC50 (Cytochrome P450 1A2): 20 µM (inconclusive)

Structure (SMILES): CCCCc1nc2sc3c(c2c(=O)n1NC(=O)c1ccco1)CC(C)(C)OC3
- IC50 (Aminopeptidase N): 42.8 µM (active)

Structure (SMILES): COc1ccc(/C=C/C(O)=C2\C(=O)NC(=O)N(CCC3=CCCCC3)C2=O)cc1
- EC50 [6]: 13.7 µM (active)
- EC50 [7]: 14.4 µM (active)
- AC50 [8]: 2.71 µM (active)

From ChEMBL document CHEMBL1201862, “PubChem BioAssay data set” (2004)
